Assay results reported in patent US20260041744A1, “Methods for Treating Pompe Disease” (Amicus Therapeutics, Inc., priority 2022, published 2026).

Columns and labels:
[1] = tested on: adult subjects with late-onset Pompe disease (LOPD); assay: Study ATB200-03 (PROPEL): PROMIS-Physical Function; assay type: in vivo, human; details: for CHG to Week 52 in PROMIS-Physical Function total score, LS Mean: MMRM, actual time point of assessments; for PROMIS-Physical Function Short Form 20a total score CHG, LS means (SE): Week 52, ANCOVA
Protocol: The test for the primary endpoint was conducted first at the 1-sided 0.025 significance level, and if significant, the ordered key secondary endpoints were similarly tested at the same significance level. The statistical significance of the key secondary endpoints was interpreted following a hierarchical testing order, each at the 1-sided alpha level of 0.025. […] Primary analyses of efficacy were performed using the mixed-effect model for repeated measures (MMRM) for 6MWD in Intent-to-treat Observed Population (ITT) that includes all available, observed data without any missing data imputation (ITT-OBS) and analysis of covariance (ANCOVA) for all other endpoints in the Intent-to-Treat-Last Observation Carried Forward (ITT-LOCF) Population. A nonparametric randomization based ANCOVA was specified as the first sensitivity analysis for 6MWD and FVC. […] For the purposes of data presentation in this document, 2-sided p-values are reported hereafter, except as otherwise noted.

[2] = tested on: adult subjects with late-onset Pompe disease (LOPD); assay: Study ATB200-03 (PROPEL): serum creatine kinase (CK); assay type: in vivo, human; details: combined study population
[3] = tested on: adult subjects with late-onset Pompe disease (LOPD); assay: Study ATB200-03 (PROPEL): urinary hexose tetrasaccharide (Hex4/Glc4); assay type: in vivo, human
[4] = tested on: adult subjects with late-onset Pompe disease (LOPD); assay: Study ATB200-03: global test and responder analyses on 6MWD, FVC, MMT; assay type: in vivo, human; details: change from baseline to Week 52
From the text: To support the interpretation of clinical benefit, a composite subject-level response was defined based on the totality of the treatment outcome data. Subjects were classified by an ordinal response variable consisting of significant improvement, moderate improvement, or minor/no improvement based on treatment outcomes.
Thresholds for clinically relevant changes for 6MWD and FVC in Pompe specifically are not well established, however a large body of data exists from other neuromuscular and chronic respiratory diseases, especially interstitial pulmonary fibrosis (IPF). […] Accordingly, these thresholds were applied to analyses of Study ATB200-03 data.
Additional post hoc patient-level analyses were conducted using these thresholds for 6MWD (±6%) and FVC (±3%) separately and combined.

[5] = tested on: adult subjects with LOPD; assay: Study ATB200-07 (OLE of PROPEL): 6MWD and % predicted 6MWD; assay type: in vivo, human
From the text: (§1) The study doses and schedule are maintained from Study ATB200-03.
(§2) Efficacy data are presented in this summary as change from the baseline of Study ATB200-03 (OLE-ES Population).

[6] = tested on: adult subjects with LOPD; assay: Study ATB200-07 (OLE): sitting % predicted FVC; assay type: in vivo, human
From the text: as §1, §2

[7] = tested on: adult subjects with LOPD; assay: Study ATB200-07 (OLE): PROMIS-Fatigue; assay type: in vivo, human
From the text: (§3) Analysis populations presented in this summary are 1) the OLE-ES Population (all subjects who satisfied the eligibility requirements (based on the inclusion and exclusion criteria) and entered Study ATB200-07 and 2) the OLE-FAS Population (all subjects who entered the OLE Study ATB200-07 who had both a valid ATB200-07 baseline and at least 1 post-baseline assessment for at least 1 of the 6 main efficacy endpoints [6MWD, sitting % predicted FVC, MMT-lower extremities, PROMIS-Physical Function, PROMIS-Fatigue, and GSGC]).

[8] = tested on: adult subjects with LOPD; assay: Study ATB200-07 (OLE): CK
Protocol: The Phase III double-blind PROPEL study (NCT03729362; ATB200-03) described in Examples 9 and 10 above compared the investigational two-component therapy cipaglucosidase alfa/miglustat (cipa/mig) with alglucosidase alfa/placebo (alglu) in adults with late-onset Pompe disease (LOPD) over 52 weeks. The ongoing open-label extension (OLE) of PROPEL (NCT04138277; ATB200-07) evaluates long-term safety and efficacy of cipa/mig. Outcomes include 6 minute walk distance (6MWD), forced vital capacity (FVC), creatine kinase (CK) and hexose tetrasaccharide (Hex4) levels and safety. Data are reported as change from the PROPEL baseline to OLE week 52 (104 weeks after the PROPEL baseline).

[9] = tested on: adult subjects with LOPD; assay: Study ATB200-07 (OLE): MMT lower extremity
From the text: as §3

[10] = tested on: adult subjects with Pompe disease; assay: Pooled Studies ATB200-02/03/07 (Pool 2): 6MWD by exposure interval; details: exposure interval ≤15 months
Protocol: (§4) The pooled efficacy analyses presented within this section include the outlier (Pool 2). […] Pooled efficacy analyses excluding the outlier subject (Pool 2A) were also performed.
(§5) No long-term data for the alglucosidase alfa/placebo group are available, as all subjects switched to cipaglucosidase alfa/miglustat in Study ATB200-07.
(§6) Efficacy data from the 3 adult Pompe disease clinical studies were pooled and analyzed to further support the long-term efficacy of cipaglucosidase alfa/miglustat in adult subjects. Data from non-ambulatory subjects (Study ATB200-02 Cohort 2) were not included in the pool as there was little overlap of efficacy endpoints for this group with the various ambulatory groups, such as 6MWD and lower MMT.
(§7) The 3 adult Pompe disease clinical studies were pooled as follows: • The cipaglucosidase alfa/miglustat treatment group consists of: • All ambulatory subjects in Study ATB200-02 (Cohorts 1, 3, and 4), • All subjects randomized to the cipaglucosidase alfa/miglustat treatment group in Study ATB200-03, and • All subjects enrolled in Study ATB200-07. • The alglucosidase alfa/placebo treatment group consists of: • All subjects randomized to the ERT treatment group in Study ATB200-03.

[11] = tested on: adult subjects with Pompe disease; assay: Pooled Studies ATB200-02/03/07 (Pool 2): sitting % predicted FVC by exposure interval; details: exposure interval ≤15 months
Protocol: as §4, §5, §6, §7

[12] = Week 52-LOCF, ERT-experienced Population
[13] = Week 52-LOCF, ERT-naïve Subjects excluding Subject 4005-2511
[14] = Week 52-LOCF, ITT excluding Subject 4005-2511
[15] = Excluding Subject 4005-2511, 2-sided p 0.010
[16] = ITT Population, 2-sided p 0.022
[17] = Study ATB200-03 baseline, OLE-ES Population excluding Subject 4005-2511
[18] = change from ATB200-03 baseline at Week 104, alglucosidase alfa/placebo group switched to cipaglucosidase alfa/miglustat at Week 52, OLE-ES excluding Subject 4005-2511
[19] = ERT-naïve, Study ATB200-03/07, excluding the outlier
[20] = change from ATB200-03 baseline at Week 52, OLE-ES excluding Subject 4005-2511
[21] = Pool 2, Efficacy Population including the outlier
[22] = last available post-baseline value − baseline, Pool 2, including the outlier

alglucosidase alfa [reference compound]
PROMIS-Physical Function Short Form 20a total score Absolute Value, Median ([1]; Baseline, ITT, ERT-naïve Subjects excluding Subject 4005-2511): 67.00
PROMIS-Physical Function Short Form 20a total score Absolute Value, Mean ([1]; Baseline, ITT, ERT-naïve Subjects excluding Subject 4005-2511, score 20 to 100, higher = less impact): 72.71
mean (SD) change in PROMIS-Physical Function total score from baseline to Week 52 ([1]; ERT-experienced Population): 1.0 (11.20)
mean (SD) change in PROMIS-Physical Function total score from baseline to Week 52 ([1]; ERT-naïve excluding Subject 4005-2511): 5.1 (7.82)
Change in PROMIS-Physical Function total score baseline to Week 52, LS means (SE) from ANCOVA ([1]; ITT-LOCF, ERT-naïve Subjects excluding Subject 4005-2511): 6.96 (3.539)
CHG to Week 52 in PROMIS-Physical Function total score, LS Mean ([1]; ITT-OBS excluding Subject 4005-2511 (overall)): −0.3
CHG to Week 52 in PROMIS-Physical Function total score, LS Mean ([1]; ITT-OBS excluding Subject 4005-2511, ERT-naïve Subjects): 5.8
CHG to Week 52 in PROMIS-Physical Function total score, LS Mean ([1]; ITT-OBS, ERT-experienced Subjects): −1.6
PROMIS-Physical Function Short Form 20a total score Absolute Value, Mean (SD) [1, 12]: 65.90 (15.790)
PROMIS-Physical Function Short Form 20a total score Absolute Value, Median [1, 12]: 66.00
PROMIS-Physical Function Short Form 20a total score CHG, Mean (SD) [1, 12]: −0.97 (11.196)
PROMIS-Physical Function Short Form 20a total score CHG, Median [1, 12]: −2.00
PROMIS-Physical Function Short Form 20a total score Absolute Value, Mean [1, 13]: 77.86
PROMIS-Physical Function Short Form 20a total score Absolute Value, Median [1, 13]: 80.00
PROMIS-Physical Function Short Form 20a total score CHG (change from baseline), Mean [1, 13]: 5.14
PROMIS-Physical Function Short Form 20a total score CHG (change from baseline), Median [1, 13]: 5.00
PROMIS-Physical Function Short Form 20a total score Absolute Value, Mean (SD) [1, 14]: 68.16 (16.269)
PROMIS-Physical Function Short Form 20a total score Absolute Value, Median [1, 14]: 69.00
PROMIS-Physical Function Short Form 20a total score CHG, Mean (SD) [1, 14]: 0.19 (10.819)
PROMIS-Physical Function Short Form 20a total score CHG, Median [1, 14]: −1.00
PROMIS-Physical Function Short Form 20a total score CHG, LS means (SE) ([1]; ITT-LOCF excluding Subject 4005-2511): 0.11 (1.406)
PROMIS-Physical Function Short Form 20a total score CHG, LS means (SE) ([1]; ITT-LOCF, ERT-experienced Population): −1.25 (1.587)
mean (SD) change in PROMIS-Physical Function total score from baseline to Week 52 ([1]; overall population): 0.2 (10.82)
mean change in CK after 52 weeks [2]: +15.6%
mean urinary Glc4 concentration at Week 52 ([3]; ERT-experienced patients (baseline 4.6 and 7.2 mmol/mol)): 9.1 mmol/mol
mean change in urine Hex-4 after 52 weeks ([3]; combined ERT switch and ERT naïve population): +11.0%
Wilcoxon rank sum test on sum of ranks for 6MWD and % predicted FVC: Mean Score [4, 15]: 48.5
Wilcoxon rank sum test on sum of ranks for 6MWD and % predicted FVC: Sum of Scores [4, 15]: 1793.5
Wilcoxon rank sum test on sum of ranks for 6MWD and FVC: Mean Score [4, 16]: 50.4
Wilcoxon rank sum test on sum of ranks for 6MWD and FVC: Sum of Scores [4, 16]: 1915.5
6MWD, mean BSL [5, 17]: 351.7 m
6MWD, mean 52-wk CFB ([5]; change from ATB200-03 baseline at Week 52 (= ATB200-07 baseline), OLE-ES excluding Subject 4005-2511): 8.0 m
6MWD, mean 104-wk CFB [5, 18]: 3.3 m
% Predicted FVC Baseline Mean [6, 19]: 79.1 % predicted
% Predicted FVC CFBL M12 (W 52) Mean [6, 19]: −4.0 % predicted
% Predicted FVC CFBL M24 (W 104) Mean [6, 19]: −3.1 % predicted
Sitting FVC, mean BSL [6, 17]: 69.5 % predicted
Sitting FVC, mean 52-wk CFB [6, 20]: −3.6 % predicted
Sitting FVC, mean 104-wk CFB [6, 18]: −3.6 % predicted
PROMIS-Fatigue, mean BSL [7, 17]: 21.2
PROMIS-Fatigue, mean 52-wk CFB ([7]; change from ATB200-03 baseline at Week 52, decrease indicates improvement, OLE-ES excluding Subject 4005-2511): −1.7
PROMIS-Fatigue, mean 104-wk CFB [7, 18]: −0.1
CK, mean BSL [8, 17]: 527.4
CK, mean 52-wk CFB [8, 20]: 41.0
CK, mean 104-wk CFB [8, 18]: −173.6
MMT (lower extremity score), mean BSL [9, 17]: 27.8
MMT (lower extremity score), mean 52-wk CFB [9, 20]: 0.9
MMT (lower extremity score), mean 104-wk CFB [9, 18]: 1.1
6MWD Baseline, Mean [10, 21]: 350.14 meters
6MWD Baseline, Median ([10]; Pool 2, including the outlier): 358.45 meters
6MWD change from baseline, median ([10]; Pool 2, including the outlier): 3.15 meters
6MWD change from baseline, mean [10, 22]: 16.40 meters
Sitting % Predicted FVC Baseline, Mean [11, 21]: 70.04 % predicted
Sitting % Predicted FVC Baseline, Median ([11]; Pool 2, including the outlier): 71.25 % predicted
sitting % predicted FVC change from baseline, median ([11]; Pool 2, including the outlier): −3.00 % predicted
sitting % predicted FVC change from baseline, mean [11, 22]: −3.64 % predicted
